Experimental data: ChEMBL document CHEMBL4507304, “Data for DCP probe TP-021” (2021)

What was measured:
[1] = target: Mitogen-activated protein kinase kinase kinase kinase 2 (Homo sapiens) (UniProt Q12851); details: Compound concentration 1000.0 nM
[2] = target: Calcium/calmodulin-dependent protein kinase type 1D (Homo sapiens) (UniProt Q8IU85); details: Compound concentration 1000.0 nM
[3] = target: Cyclin-G-associated kinase (Homo sapiens) (UniProt O14976); details: Compound concentration 1000.0 nM
[4] = test system: Receptor-type tyrosine-protein kinase FLT3 (Homo sapiens), P36888 [D835Y]; details: Compound concentration 1000.0 nM
[5] = target: Ephrin type-A receptor 6 (Homo sapiens) (UniProt Q9UF33); details: Compound concentration 1000.0 nM
[6] = target: Serine/threonine-protein kinase Nek5 (Homo sapiens) (UniProt Q6P3R8); details: Compound concentration 1000.0 nM
[7] = target: Ribosomal protein S6 kinase alpha-1 (Homo sapiens) (UniProt Q15418); details: Compound concentration 1000.0 nM
[8] = target: GABA-A receptor; anion channel (Rattus norvegicus) (UniProt O09028+P15431+P18506+P18508+P19969+P20236+P23574+P23576+P28471+P28473+P30191+P62813+P63079+P63138+Q91ZM7+Q9ES14); details: Compound concentration 10.0 uM
[9] = target: Mitogen-activated protein kinase kinase kinase 4 (Homo sapiens) (UniProt Q9Y6R4); details: Compound concentration 1000.0 nM
Chain of Mitogen-activated protein kinase kinase kinase 4 (Homo sapiens) (Q9Y6R4 whole entry): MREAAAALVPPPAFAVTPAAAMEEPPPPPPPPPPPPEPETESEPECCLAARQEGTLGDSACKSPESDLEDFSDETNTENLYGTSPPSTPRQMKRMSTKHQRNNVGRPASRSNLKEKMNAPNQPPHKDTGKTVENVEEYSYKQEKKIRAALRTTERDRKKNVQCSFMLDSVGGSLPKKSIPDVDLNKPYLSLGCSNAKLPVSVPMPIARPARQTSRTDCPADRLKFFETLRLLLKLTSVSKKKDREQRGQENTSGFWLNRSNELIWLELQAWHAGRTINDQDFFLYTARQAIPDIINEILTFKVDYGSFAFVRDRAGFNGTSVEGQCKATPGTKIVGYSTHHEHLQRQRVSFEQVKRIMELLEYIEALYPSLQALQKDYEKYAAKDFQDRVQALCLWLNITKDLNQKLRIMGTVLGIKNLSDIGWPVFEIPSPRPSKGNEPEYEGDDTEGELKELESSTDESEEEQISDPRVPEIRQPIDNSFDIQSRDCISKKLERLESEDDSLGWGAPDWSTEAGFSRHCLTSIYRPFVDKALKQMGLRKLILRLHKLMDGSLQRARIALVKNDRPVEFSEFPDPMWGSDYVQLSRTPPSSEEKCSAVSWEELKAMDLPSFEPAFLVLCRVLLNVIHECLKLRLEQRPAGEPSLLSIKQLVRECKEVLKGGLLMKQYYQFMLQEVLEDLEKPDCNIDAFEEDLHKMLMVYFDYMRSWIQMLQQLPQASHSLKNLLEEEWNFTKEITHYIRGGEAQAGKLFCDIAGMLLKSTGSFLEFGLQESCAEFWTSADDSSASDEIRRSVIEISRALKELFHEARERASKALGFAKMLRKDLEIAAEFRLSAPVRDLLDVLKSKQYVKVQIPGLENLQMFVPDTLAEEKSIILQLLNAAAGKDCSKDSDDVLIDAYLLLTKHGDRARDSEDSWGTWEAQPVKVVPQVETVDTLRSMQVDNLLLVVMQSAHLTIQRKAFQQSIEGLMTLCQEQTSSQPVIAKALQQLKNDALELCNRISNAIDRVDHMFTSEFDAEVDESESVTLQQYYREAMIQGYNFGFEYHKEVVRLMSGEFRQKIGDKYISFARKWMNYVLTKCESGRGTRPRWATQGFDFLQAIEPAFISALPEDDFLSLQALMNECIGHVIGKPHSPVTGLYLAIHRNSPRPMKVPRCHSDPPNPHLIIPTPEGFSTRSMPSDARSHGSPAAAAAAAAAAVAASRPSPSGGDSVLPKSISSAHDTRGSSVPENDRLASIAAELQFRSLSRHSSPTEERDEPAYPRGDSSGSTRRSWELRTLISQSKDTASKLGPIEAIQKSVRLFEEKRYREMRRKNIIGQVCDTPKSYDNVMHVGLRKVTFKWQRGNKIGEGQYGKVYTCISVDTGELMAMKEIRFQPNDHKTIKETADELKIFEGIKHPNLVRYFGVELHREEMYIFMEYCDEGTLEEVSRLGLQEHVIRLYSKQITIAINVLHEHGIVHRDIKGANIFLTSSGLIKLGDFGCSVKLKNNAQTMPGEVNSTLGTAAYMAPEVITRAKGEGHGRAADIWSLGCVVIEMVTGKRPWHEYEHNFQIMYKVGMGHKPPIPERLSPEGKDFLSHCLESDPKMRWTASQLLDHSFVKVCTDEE

[10] = target: 5-hydroxytryptamine receptor 2B (Homo sapiens) (UniProt P41595); details: Compound concentration 10.0 uM
[11] = test system: Tyrosine-protein kinase ABL1 (Homo sapiens), P00519 [Q252H]; details: Compound concentration 1000.0 nM
[12] = target: Insulin receptor-related protein (Homo sapiens) (UniProt P14616); details: Compound concentration 1000.0 nM
[13] = target: MAP kinase-interacting serine/threonine-protein kinase 2 (Homo sapiens) (UniProt Q9HBH9); details: Compound concentration 1000.0 nM
[14] = target: NT-3 growth factor receptor (Homo sapiens) (UniProt Q16288); details: Compound concentration 1000.0 nM
[15] = target: Myosin light chain kinase family member 4 (Homo sapiens) (UniProt Q86YV6); details: Compound concentration 1000.0 nM
[16] = target: Tyrosine-protein kinase ITK/TSK (Homo sapiens) (UniProt Q08881); details: Compound concentration 1000.0 nM
[17] = target: Serine/threonine-protein kinase PknB (Mycobacterium tuberculosis) (UniProt P9WI81); details: Compound concentration 1000.0 nM
[18] = target: Cyclin-dependent kinase-like 3 (Homo sapiens) (UniProt Q8IVW4); details: Compound concentration 1000.0 nM
[19] = target: Receptor-type tyrosine-protein kinase FLT3 (Homo sapiens) (UniProt P36888); details: Compound concentration 1000.0 nM
[20] = target: Casein kinase I isoform epsilon (Homo sapiens) (UniProt P49674); details: Compound concentration 1000.0 nM
Chain of Casein kinase I isoform epsilon (Homo sapiens) (P49674 whole entry, looked up, canonical isoform): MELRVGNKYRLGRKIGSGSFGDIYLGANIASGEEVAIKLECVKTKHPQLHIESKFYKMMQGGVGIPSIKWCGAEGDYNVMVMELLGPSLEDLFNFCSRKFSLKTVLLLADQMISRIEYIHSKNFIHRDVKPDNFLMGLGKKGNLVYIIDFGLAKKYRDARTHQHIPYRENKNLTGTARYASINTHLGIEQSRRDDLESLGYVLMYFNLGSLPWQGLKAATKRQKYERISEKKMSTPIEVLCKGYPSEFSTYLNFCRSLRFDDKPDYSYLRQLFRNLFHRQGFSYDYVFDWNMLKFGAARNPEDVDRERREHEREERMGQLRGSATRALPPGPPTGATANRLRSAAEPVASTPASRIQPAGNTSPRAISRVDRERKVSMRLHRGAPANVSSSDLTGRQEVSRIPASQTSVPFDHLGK

[21] = target: Ephrin type-B receptor 1 (Homo sapiens) (UniProt P54762); details: Compound concentration 1000.0 nM
[22] = target: Testis-specific serine/threonine-protein kinase 1 (Homo sapiens) (UniProt Q9BXA7); details: Compound concentration 1000.0 nM
[23] = target: Angiopoietin-1 receptor (Homo sapiens) (UniProt Q02763); details: Compound concentration 1000.0 nM
[24] = target: Fibroblast growth factor receptor 4 (Homo sapiens) (UniProt P22455); details: Compound concentration 1000.0 nM
Chain of Fibroblast growth factor receptor 4 (Homo sapiens) (P22455 22-802 limits assumed): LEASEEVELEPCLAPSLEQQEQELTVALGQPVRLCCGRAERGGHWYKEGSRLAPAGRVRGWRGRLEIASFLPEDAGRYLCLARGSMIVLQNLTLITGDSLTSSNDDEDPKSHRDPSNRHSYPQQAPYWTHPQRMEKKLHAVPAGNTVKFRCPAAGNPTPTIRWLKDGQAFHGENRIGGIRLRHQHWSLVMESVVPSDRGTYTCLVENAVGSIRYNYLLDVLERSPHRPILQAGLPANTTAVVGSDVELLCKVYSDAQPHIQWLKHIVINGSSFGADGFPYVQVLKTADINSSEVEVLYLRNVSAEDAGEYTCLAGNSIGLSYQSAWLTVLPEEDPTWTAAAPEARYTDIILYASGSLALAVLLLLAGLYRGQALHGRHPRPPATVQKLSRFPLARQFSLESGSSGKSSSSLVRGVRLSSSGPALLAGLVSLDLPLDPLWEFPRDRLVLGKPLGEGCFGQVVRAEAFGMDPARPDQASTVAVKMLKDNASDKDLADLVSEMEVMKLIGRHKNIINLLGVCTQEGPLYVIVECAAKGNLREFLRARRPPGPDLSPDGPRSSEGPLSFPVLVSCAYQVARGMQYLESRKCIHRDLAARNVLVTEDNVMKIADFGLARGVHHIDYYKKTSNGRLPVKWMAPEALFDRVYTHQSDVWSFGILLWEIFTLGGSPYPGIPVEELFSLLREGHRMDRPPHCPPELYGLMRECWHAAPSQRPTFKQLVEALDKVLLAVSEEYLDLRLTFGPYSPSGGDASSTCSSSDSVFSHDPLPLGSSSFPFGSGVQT

[25] = target: Ephrin type-A receptor 3 (Homo sapiens) (UniProt P29320); details: Compound concentration 1000.0 nM
[26] = target: Serine/threonine-protein kinase Nek11 (Homo sapiens) (UniProt Q8NG66); details: Compound concentration 1000.0 nM
Chain of Serine/threonine-protein kinase Nek11 (Homo sapiens) (Q8NG66 whole entry): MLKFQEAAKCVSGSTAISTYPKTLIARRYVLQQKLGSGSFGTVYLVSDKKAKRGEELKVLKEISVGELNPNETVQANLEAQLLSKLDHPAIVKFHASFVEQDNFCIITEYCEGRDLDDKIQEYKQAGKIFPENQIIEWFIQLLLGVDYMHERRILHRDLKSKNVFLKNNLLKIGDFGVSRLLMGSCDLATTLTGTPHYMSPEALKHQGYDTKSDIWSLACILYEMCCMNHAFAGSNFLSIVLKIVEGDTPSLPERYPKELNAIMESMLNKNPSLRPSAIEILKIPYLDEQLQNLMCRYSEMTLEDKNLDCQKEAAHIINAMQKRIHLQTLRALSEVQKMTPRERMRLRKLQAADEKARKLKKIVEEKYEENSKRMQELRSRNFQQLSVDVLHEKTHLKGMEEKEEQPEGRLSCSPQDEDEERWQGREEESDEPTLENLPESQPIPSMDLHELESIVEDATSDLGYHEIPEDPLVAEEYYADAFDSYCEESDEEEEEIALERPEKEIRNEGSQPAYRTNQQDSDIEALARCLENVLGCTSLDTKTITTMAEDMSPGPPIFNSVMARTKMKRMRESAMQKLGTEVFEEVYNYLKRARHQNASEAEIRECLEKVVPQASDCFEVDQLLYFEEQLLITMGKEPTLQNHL

[27] = target: Serine/threonine-protein kinase DCLK1 (Homo sapiens) (UniProt O15075); details: Compound concentration 1000.0 nM
[28] = target: Dual specificity protein kinase CLK2 (Homo sapiens) (UniProt P49760); details: Compound concentration 1000.0 nM
[29] = test system: ALK tyrosine kinase receptor (Homo sapiens), Q9UM73 [C1156Y]; details: Compound concentration 1000.0 nM
[30] = target: Cyclin-dependent kinase 2 (Homo sapiens) (UniProt P24941); details: Compound concentration 1000.0 nM
[31] = target: Myosin-IIIb (Homo sapiens) (UniProt Q8WXR4); details: Compound concentration 1000.0 nM
[32] = target: Mitogen-activated protein kinase kinase kinase 1 (Homo sapiens) (UniProt Q13233); details: Compound concentration 1000.0 nM
[33] = target: Receptor tyrosine-protein kinase erbB-4 (Homo sapiens) (UniProt Q15303); details: Compound concentration 1000.0 nM
[34] = target: BDNF/NT-3 growth factors receptor (Homo sapiens) (UniProt Q16620); details: Compound concentration 1000.0 nM
Chain of BDNF/NT-3 growth factors receptor (Homo sapiens) (Q16620 32-822 limits assumed): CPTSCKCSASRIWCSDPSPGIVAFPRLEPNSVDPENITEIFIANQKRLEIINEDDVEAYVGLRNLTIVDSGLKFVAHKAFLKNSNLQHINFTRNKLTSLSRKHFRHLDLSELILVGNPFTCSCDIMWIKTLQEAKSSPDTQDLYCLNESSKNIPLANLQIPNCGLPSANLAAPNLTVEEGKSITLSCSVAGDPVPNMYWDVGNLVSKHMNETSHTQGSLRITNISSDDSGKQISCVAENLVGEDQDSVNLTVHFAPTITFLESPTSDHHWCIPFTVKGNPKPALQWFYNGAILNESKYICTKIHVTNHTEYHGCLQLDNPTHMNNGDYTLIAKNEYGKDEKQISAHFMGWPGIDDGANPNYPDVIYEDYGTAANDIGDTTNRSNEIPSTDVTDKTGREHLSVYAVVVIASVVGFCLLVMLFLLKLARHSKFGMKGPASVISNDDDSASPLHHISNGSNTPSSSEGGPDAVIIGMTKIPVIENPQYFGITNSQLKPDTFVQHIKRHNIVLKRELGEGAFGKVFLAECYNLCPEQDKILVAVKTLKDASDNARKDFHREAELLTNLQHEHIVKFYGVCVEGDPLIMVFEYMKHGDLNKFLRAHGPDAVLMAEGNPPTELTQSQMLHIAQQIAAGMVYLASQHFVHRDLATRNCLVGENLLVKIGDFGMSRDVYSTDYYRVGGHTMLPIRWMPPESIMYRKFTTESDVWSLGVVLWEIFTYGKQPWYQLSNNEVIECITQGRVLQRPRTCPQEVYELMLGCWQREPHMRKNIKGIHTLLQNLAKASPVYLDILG

[35] = test system: Epidermal growth factor receptor (Homo sapiens), P00533 [G719S]; details: Compound concentration 1000.0 nM
[36] = target: D(3) dopamine receptor (Homo sapiens) (UniProt P35462); details: Compound concentration 10.0 uM
[37] = target: Mitogen-activated protein kinase 3 (Homo sapiens) (UniProt P27361); details: Compound concentration 1000.0 nM
[38] = target: Muscarinic acetylcholine receptor M4 (Homo sapiens) (UniProt P08173); details: Compound concentration 10.0 uM
[39] = target: Serine/threonine-protein kinase Sgk1 (Homo sapiens) (UniProt O00141); details: Compound concentration 1000.0 nM
Chain of Serine/threonine-protein kinase Sgk1 (Homo sapiens) (O00141 whole entry, canonical isoform): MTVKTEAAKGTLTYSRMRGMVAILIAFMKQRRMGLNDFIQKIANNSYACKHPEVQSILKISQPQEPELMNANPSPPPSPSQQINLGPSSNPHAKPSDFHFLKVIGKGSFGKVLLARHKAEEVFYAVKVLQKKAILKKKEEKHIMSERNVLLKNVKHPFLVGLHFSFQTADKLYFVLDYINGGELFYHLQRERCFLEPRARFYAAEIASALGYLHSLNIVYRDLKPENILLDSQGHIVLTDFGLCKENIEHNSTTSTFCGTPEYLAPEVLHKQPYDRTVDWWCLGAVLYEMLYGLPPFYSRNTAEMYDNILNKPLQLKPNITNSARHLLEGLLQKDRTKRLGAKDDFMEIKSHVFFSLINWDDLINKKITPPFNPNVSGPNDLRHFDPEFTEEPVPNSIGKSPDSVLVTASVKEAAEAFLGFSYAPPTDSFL

[40] = target: Casein kinase I isoform gamma-2 (Homo sapiens) (UniProt P78368); details: Compound concentration 1000.0 nM
[41] = target: Atypical kinase COQ8A, mitochondrial (Homo sapiens) (UniProt Q8NI60); details: Compound concentration 1000.0 nM
[42] = target: Tyrosine-protein kinase Lyn (Homo sapiens) (UniProt P07948); details: Compound concentration 1000.0 nM
[43] = target: 5-hydroxytryptamine receptor 7 (Homo sapiens) (UniProt P34969); details: Compound concentration 10.0 uM
[44] = target: Tyrosine-protein kinase Fer (Homo sapiens) (UniProt P16591); details: Compound concentration 1000.0 nM

Chain of Calcium/calmodulin-dependent protein kinase type 1D (Homo sapiens) (Q8IU85 whole entry, looked up): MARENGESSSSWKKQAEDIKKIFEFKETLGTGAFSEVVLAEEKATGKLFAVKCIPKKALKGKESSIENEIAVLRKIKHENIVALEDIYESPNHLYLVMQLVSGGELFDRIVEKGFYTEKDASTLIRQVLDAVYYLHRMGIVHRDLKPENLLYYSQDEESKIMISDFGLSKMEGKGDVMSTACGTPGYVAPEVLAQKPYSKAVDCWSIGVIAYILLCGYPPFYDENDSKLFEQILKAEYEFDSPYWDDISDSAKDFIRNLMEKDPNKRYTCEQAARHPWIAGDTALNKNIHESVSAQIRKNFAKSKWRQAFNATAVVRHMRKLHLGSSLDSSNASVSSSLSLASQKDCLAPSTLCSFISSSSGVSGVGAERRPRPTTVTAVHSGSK

N#Cc1ccc(Nc2ccc3[nH]c(=O)[nH]c3c2)c(Cl)c1
inactive: residual activity [1] 100% | residual activity [2] 92% | residual activity [3] 100% | residual activity [4] 94% | residual activity [5] 82% | residual activity [6] 100% | residual activity [7] 100% | inhibition [8] 15.5% | residual activity [9] 95% | inhibition [10] 11% | residual activity [11] 89% | residual activity [12] 100% | residual activity [13] 100% | residual activity [14] 100% | residual activity [15] 100% | residual activity [16] 100% | residual activity [17] 100% | residual activity [18] 80% | residual activity [19] 100% | residual activity [20] 94% | residual activity [21] 93% | residual activity [22] 56% | residual activity [23] 85% | residual activity [24] 100% | residual activity [25] 86% | residual activity [26] 100% | residual activity [27] 84% | residual activity [28] 100% | residual activity [29] 100% | residual activity [30] 93% | residual activity [31] 100% | residual activity [32] 79% | residual activity [33] 100% | residual activity [34] 100% | residual activity [35] 100% | inhibition [36] 3.81% | residual activity [37] 95% | inhibition [38] 11.6% | residual activity [39] 100% | residual activity [40] 100% | residual activity [41] 100% | residual activity [42] 78% | inhibition [43] 8.12% | residual activity [44] 100%

O=C1CCc2cc(Nc3cc(OC4CCOCC4)c([N+](=O)[O-])cc3Cl)ccc2N1
inactive: residual activity [1] 95% | residual activity [2] 100% | residual activity [3] 100% | residual activity [4] 100% | residual activity [5] 80% | residual activity [6] 96% | residual activity [7] 100% | inhibition [8] 12.7% | residual activity [9] 85% | inhibition [10] 3.31% | residual activity [11] 79% | residual activity [12] 100% | residual activity [13] 98% | residual activity [14] 100% | residual activity [15] 96% | residual activity [16] 95% | residual activity [17] 94% | residual activity [18] 79% | residual activity [19] 90% | residual activity [20] 100% | residual activity [21] 83% | residual activity [22] 85% | residual activity [23] 76% | residual activity [24] 81% | residual activity [25] 83% | residual activity [26] 100% | residual activity [27] 95% | residual activity [28] 99% | residual activity [29] 91% | residual activity [30] 88% | residual activity [31] 97% | residual activity [32] 65% | residual activity [33] 100% | residual activity [34] 100% | residual activity [35] 100% | inhibition [36] 35.4% | residual activity [37] 78% | inhibition [38] 48.7% | residual activity [39] 100% | residual activity [40] 88% | residual activity [41] 100% | residual activity [42] 93% | inhibition [43] 12.3% | residual activity [44] 100%
